Data reported in patent publication US4216324A, “1-Difluoromethyl-6,7-methylenedioxy-1,4-dihyd ro-4-oxo-3-quinolinecarboxylic acid” (E. I. Du Pont de Nemours and Company, priority 1978, dated 1980).
≈ marks a conversion by molar mass, not a printed value. Where two headings read alike, the source gives them in different places.

Tests used:
[1] = system: Pseud. aeruginosa; assay: In vitro minimum inhibitory concentration (MIC), tube dilution test; assay type: cell-based; settings: Pseudomonas aeruginosa, 20 h, brain-heart infusion broth, 20hour incubation at 37° C., read-out: Minimal Inhibitory Test Conens. (MIC)
[2] = General pharmacology screen in rats; settings: in vivo, rat, doses given in mg./kg; for TD50: po
[3] = system: Kleb. aerobacter; assay: In vitro minimum inhibitory concentration (MIC), tube dilution test; assay type: cell-based; settings: Kleb. aerobacter (20F); brain-heart infusion broth, 20hour incubation at 37° C.; read-out: Minimal Inhibitory Test Conens. (MIC)
Protocol: (§1) A. In vitro: mimimum inhibitory concentration (MIC)
(§2) The compound was tested in a standard bacteriological tube dilution test for MIC for a variety of bacteria. Stock cultures of the bacteria listed in Table 1 were grown in bacterial culture media at 37° C. overnight and diluted in culture tubes to a previously determined concentration proper for the test. The compound was added to result in final concentrations of 10, 2, 0.4 and 0.08 μg/ml. These were incubated for 18 hours at 37° C. and then observed to determine if growth of bacteria had occurred. The lowest concentration of the compound that inhibited bacterial growth in the MIC.
(§3) *brain-heart infusion broth, 20hour incubation at 37° C.

[4] = system: Proteus sp.; assay: as above; assay type: cell-based; settings: brain-heart infusion broth, 20hour incubation at 37° C., read-out: Minimal Inhibitory Test Conens. (MIC)
Protocol: as §1, §2, §3

[5] = system: Proteus vulgaris; assay: as above; assay type: cell-based; settings: Proteus vulgaris (14P); brain-heart infusion broth, 20hour incubation at 37° C.; read-out: Minimal Inhibitory Test Conens. (MIC)
Protocol: as §1, §2, §3

[6] = system: E. coli; assay: as above; assay type: cell-based; settings: Escherichia coli, 20 h, brain-heart infusion broth, 20hour incubation at 37° C., read-out: Minimal Inhibitory Test Conens. (MIC)
Protocol: as §1, §2, §3

[7] = system: Strep. pyogenes; assay: as above; assay type: cell-based; settings: Streptococcus pyogenes; Strep. pyogenes (10V); brain-heart infusion broth, 20hour incubation at 37° C.; read-out: Minimal Inhibitory Test Conens. (MIC)
Protocol: as §1, §2, §3

[8] = system: Sal. typhi; assay: as above; assay type: cell-based; settings: Salmonella enterica, TYPHI, 20 h, brain-heart infusion broth, 20hour incubation at 37° C.
Protocol: as §1, §2, §3

[9] = system: Shiq. dysenteriae; assay: as above; assay type: cell-based; settings: 20 h, read-out: Minimal Inhibitory Test Conens. (MIC)
Protocol: as §1, §2, §3

[10] = system: Ser. marcescens; assay: as above; assay type: cell-based; settings: Serratia marcescens; Ser. marcescens (22); brain-heart infusion broth, 20hour incubation at 37° C.; read-out: Minimal Inhibitory Test Conens. (MIC)
Protocol: as §1, §2, §3

[11] = system: Sal. typhimurium; assay: as above; assay type: cell-based; settings: Salmonella enterica, 20 h, brain-heart infusion broth, 20hour incubation at 37° C., read-out: Minimal Inhibitory Test Conens. (MIC)
Protocol: as §1, §2, §3

[12] = system: Sal. choleraesuis; assay: as above; assay type: cell-based; settings: Salmonella enterica, 20 h, read-out: Minimal Inhibitory Test Conens. (MIC)
Protocol: as §1, §2, §3

[13] = system: Aero. cloacae; assay: as above; assay type: cell-based; settings: Enterobacter cloacae; Aero. cloacae (39A); brain-heart infusion broth, 20hour incubation at 37° C.; read-out: Minimal Inhibitory Test Conens. (MIC)
Protocol: as §1, §2, §3

[14] = system: Sal. gallinarum; assay: as above; assay type: cell-based; settings: Salmonella enterica, 20 h, brain-heart infusion broth, 20hour incubation at 37° C., read-out: Minimal Inhibitory Test Conens. (MIC)
Protocol: as §1, §2, §3

[15] = system: Bac. subtilis; assay: as above; assay type: cell-based; settings: Bacillus subtilis; Bac. subtilis (07A); brain-heart infusion broth, 20hour incubation at 37° C.; read-out: Minimal Inhibitory Test Conens. (MIC)
Protocol: as §1, §2, §3

[16] = General pharmacology screen in mice; settings: mouse, in vivo, po; for TD50: doses given in mg./kg
Protocol: 17- to 24-hour fasted female white mice, 16-20 g. each, or rats, 70-90 g. each were dosed orally with test drug (or standard) at 0, 4, 12, 36, 108 or 324 mg./kg.
Ataxia--The mouse or rat was placed upright on the bench top facing away from the observer. Motor incoordination manifested by abnormal gait or lack of precision during purposive movements constituted ataxia.
Vertical Bar--The mouse or rat was swung by the tail with head pointing down to a 0.5" diameter (1" diameter for rats), 30.5 cm long vertical rod covered with adhesive tape. Inability to grip the rod with the front paws, sliding or failure to move after being prodded constituted vertical bar loss.
Body Temperature--The rectal temperatures of the mice and rats were taken using a KC-1 thermocouple probe.
Excitement and Irritability--Increased spontaneous motor activity, running and jumping prior to handling were recorded as excitement. Upon handling, jumping, jerking, biting and squeaking were recorded as irritability.
Anorexia--At the end of the 0.5 hour testing period, each mouse was transferred to an individual, clear, Lucite® compartment (13.3 cm×12.7 cm×12.7 cm) with a 0.64 cm×0.64 cm wire mesh floor. Inside each compartment there was a section of a black Lucite® bar [13 cm×1.2 cm×1.2 cm) with ten spot depressions (0.8 cm diameter) each containing 0.05 ml. of 50% sweetened condensed milk. 30 Minutes later the number of milk spots consumed was counted. 5 Mice per drug dose can drink a maximum of 50 spots (2.5 ml. of milk). 15 or fewer spots consumed by 5 mice constituted anorexia.

Compound: CCn1cc(C(=O)O)c(=O)c2ccc(C)nc21 [Nalidixic Acid, nalidixic acid]
- MIC ([1]; Pseud. aeruginosa (11B)): > 10 µg/mL
- MIC ([1]; Pseud. aeruginosa (11C)): > 10 µg/mL
- MIC ([1]; Pseud. aeruginosa (11D)): > 10 µg/mL
- MIC ([1]; Pseud. aeruginosa (11G)): > 10 µg/mL
- MIC ([1]; Pseud. aeruginosa (11I)): > 10 µg/mL
- MIC ([1]; Pseud. aeruginosa (11J)): > 10 µg/mL
- LD50 at 24 h ([2]; oral, read-out: ED50 24-Hour Mort.): > 324 mg/kg
- TD50 ([2]; read-out: ED50 Ataxia): 187 mg/kg
- TD50 ([2]; read-out: ED50 Excitation): > 324 mg/kg
- TD50 ([2]; read-out: ED50 Irritability): > 324 mg/kg
- TD50 ([2]; rectal temperature, read-out: ED50 Hypertherm.): > 324 mg/kg
- TD50 ([2]; rectal temperature, read-out: ED50 Hypotherm.): > 324 mg/kg
- TD50 ([2]; vertical bar loss, read-out: ED50 Vert. Bar): 360 mg/kg
- MIC [3]: > 10 µg/mL
- MIC [4]: 2 µg/mL (≈ 8.61 µM)
- MIC [5]: > 10 µg/mL
- MIC ([6]; E. coli (06-2B)): > 10 µg/mL
- MIC ([6]; E. coli (06-2F)): 2 µg/mL (≈ 8.61 µM)
- MIC ([6]; E. coli (06-2L)): > 10 µg/mL
- MIC ([6]; E. coli (06-2M)): 2 µg/mL (≈ 8.61 µM)
- MIC ([6]; E. coli (06C)): > 10 µg/mL
- MIC ([6]; E. coli (06I)): > 10 µg/mL
- MIC ([6]; E. coli (06J)): 2 µg/mL (≈ 8.61 µM)
- MIC ([6]; E. coli (06K)): 10 µg/mL (≈ 43.1 µM)
- MIC ([6]; E. coli (06L)): 10 µg/mL (≈ 43.1 µM)
- MIC ([6]; E. coli (06M)): 10 µg/mL (≈ 43.1 µM)
- MIC ([6]; E. coli (06S)): 10 µg/mL (≈ 43.1 µM)
- MIC ([6]; E. coli (06V)): 2 µg/mL (≈ 8.61 µM)
- MIC ([6]; E. coli (06X)): 10 µg/mL (≈ 43.1 µM)
- MIC ([6]; E.coli (06-2D)): 10 µg/mL (≈ 43.1 µM)
- MIC [7]: 10 µg/mL (≈ 43.1 µM)
- MIC ([8]; read-out: Minimal Inhibitory Test Conens. (MIC), Sal. typhi (02A)): 10 µg/mL (≈ 43.1 µM)
- MIC ([8]; read-out: Minimal Inhibitory Test Conens. (MIC), Sal. typhi (02B)): 2 µg/mL (≈ 8.61 µM)
- MIC [9]: > 10 µg/mL
- MIC [10]: 2 µg/mL (≈ 8.61 µM)
- MIC ([11]; Sal. typhimurium (03A)): 2 µg/mL (≈ 8.61 µM)
- MIC ([11]; Sal. typhimurium (03C)): 2 µg/mL (≈ 8.61 µM)
- MIC ([11]; Sal. typhimurium (03K)): 2 µg/mL (≈ 8.61 µM)
- MIC [12]: 2 µg/mL (≈ 8.61 µM)
- MIC [13]: 2 µg/mL (≈ 8.61 µM)
- MIC ([14]; Sal. gallinarum (04C)): > 10 µg/mL
- MIC ([14]; Sal. gallinarum (04D)): 10 µg/mL (≈ 43.1 µM)
- MIC [15]: 0.4 µg/mL (≈ 1.72 µM)
- LD50 at 24 h [16]: > 450 mg/kg
- TD50 ([16]; ED50 Anoroxia, 15 or fewer milk spots consumed by 5 mice): 180 mg/kg
- TD50 ([16]; ED50 Ataxia): 150 mg/kg
- TD50 ([16]; ED50 Excitation): > 450 mg/kg
- TD50 ([16]; ED50 Hypertherm., rectal temperature): > 450 mg/kg
- TD50 ([16]; ED50 Hypotherm., rectal temperature): 187 mg/kg
- TD50 ([16]; ED50 Irritability): > 450 mg/kg
- TD50 ([16]; ED50 Vert. Bar, vertical bar loss): 187 mg/kg
